Measured values taken from patent US20200306185A1, “ANTIBACTERIAL COLLOID AND METHOD FOR MANUFACTURING THE SAME” (Kaohsiung Medical University, priority 2019, published 2020).

How the values were obtained:
[1] = system: K. pneumoniae 700623; experiment: Synergistic bacteriostatic test (checkerboard test); type: cell-based, Klebsiella pneumoniae
Method: (§1) The synergistic bacteriostatic test is carried out by using the silver-containing antibacterial colloid (green mediated AgNP inhibitor) manufactured in the present embodiment and a bioactivator (using Gentamicin as an example). The fractional inhibitory concentration (FIC) index is used as a reference index for synergy. Synergy is the phenomenon in which two or more substances are mixed with each other, and the overall effect is greater than the advantage of each substance alone or less than the disadvantage of each substance alone. […] In the two-fold serial dilutions, the concentration of Gentamicin used for K. pneumoniae 700623 ranging from 1.25 μg·mL^−1 to 40 μg·mL^−1, and the concentration of Gentamicin used for K. pneumoniae BAA-1705 ranged from 5 μg·mL^−1 to 160 μg·mL^−1 The green mediated AgNP inhibitor extract extracted with TSB medium is used, and the above procedure is repeated to dilute the concentration of the green mediated AgNP inhibitor extract to 10 mg·mL^−1 50 μL of green mediated AgNP inhibitor is added longitudinally to the 96-well microplate in a two-fold serial dilution using MHB, followed by two-fold serial dilutions of six times at concentrations ranging from 0.31 mg·mL^−1 to 10 mg·mL^−1 Using 0.5 Mcfarland turbidity as the quantitative standard for bacterial solution (0.5 Mcfarland=10^8 CFU/mL). […]

[2] = system: K. pneumoniae BAA-1705; experiment: as above; type: cell-based, Klebsiella pneumoniae
Method: as §1

[3] = in combination with green mediated AgNP inhibitor

Substance: Gentamicin
- concentration of Gentamicin when used in combination (G-MIC-com) [1, 3]: 5 µg/mL
- MIC of Gentamicin when used alone (MICG) ([1]; used alone): 40 µg/mL
- concentration of Gentamicin when used in combination (G-MIC-com) [2, 3]: 10 µg/mL
- MIC of Gentamicin when used alone (MICG) ([2]; used alone): 40 µg/mL
